Assay results taken from patent publication US11617796B2, “Conjugate of minoxidil and peptide” (CAREGEN CO., LTD., priority 2016, dated 2023).
Where no end group is shown, it is not given here.

Key:
β-catenin = test: Translocation of β-catenin to nucleus in hair follicle dermal papilla cells (Western blotting); assay type: cell-based; conditions: 5 and 50 uM, 24 hours, same concentration; FIG. 10
Method: Hair follicle dermal papilla cells were placed in each well of a 6-well plate at 1×10^3 cells/well. Incubation was performed in a CO2 incubator for 24 hours. […] Protein was extracted using a protein extraction kit (extraction of each of the nuclear/cytoplasmic protein). Western blotting was carried out in the same manner as in Example 3-2 except that an anti-beta-catenin antibody, an anti-HDAC antibody, an anti-alpha tubulin antibody as primary antibodies were used.

VEGF = VEGF mRNA amount by RT-PCR in HUVECs; assay type: cell-based, human; conditions: 5 and 50 uM, 24 hours, compared with Minoxidil, FIGS. 4 to 6
Method: (§1) VEGF was expressed by HUVECs and TGFβ1 was expressed by hair follicle dermal papilla cells. Two cells were placed in each 6-well plate at a rate of 1×10^3 cells/well. After 24 hours of incubation in a CO2 incubator, the medium was replaced with serum-free DMEM medium. Three compounds of the present invention and Minoxidil were added to the cells at 5 uM and 50 uM concentration, respectively, and incubated for 24 hours. After incubated cells were harvested, RNA was extracted using an RNA extraction kit and RT-PCR was performed to confirm the degree of expression of VEGF and TGFβ1.

TGFβ1 = TGFβ1 mRNA amount by RT-PCR in hair follicle dermal papilla cells; assay type: cell-based, human; conditions: 5 and 50 uM, 24 hours, compared with Minoxidil, FIGS. 4 to 6
Method: as §1

phospho-Smad1/5/8 = test: Translocation of phospho-Smad1/5/8 to nucleus in the presence of BMP2 (Western blotting); assay type: cell-based; conditions: in the presence of BMP2, 5 and 50 uM, compared with Minoxidil; FIGS. 12 and 13
Method: Hair follicle dermal papilla cells were placed in each well of a 6-well plate at 1×10^3 cells/well. Incubation was performed in a CO2 incubator for 24 hours. After replacing the medium with serum-free DMEM medium, the Minoxidil, the Minoxidil-WINT, and the WINT were added respectively to the cells at a concentration of 5 uM and 50 uM, and then incubated for 24 hours. Protein was extracted using a protein extraction kit (extraction of each of the nuclear/cytoplasmic protein). Western blotting was carried out in the same manner as in Example 3-2 except that an anti-beta-catenin antibody, an anti-HDAC antibody, an anti-alpha tubulin antibody as primary antibodies were used.
The experiment was carried out in the same manner as in Example 5, except that in the presence of BMP2, the Minoxidil-Nokkin is used instead of the Minoxidil-WINT, and an anti-P-Smad1/5/8 antibody and an anti-HDAC1 antibody were used as primary antibodies.

Nc1cc(N2CCCCC2)nc(N)[n+]1[O-] [Minoxidil]
degree of translocation of β-catenin to the nucleus (β-catenin): significantly lower degree of translocation of β-catenin to the nucleus

Minoxidil-Nokkin: Minoxidil chemically conjugated to Nokkin peptide of SEQ ID NO: 1 (ELIEHGGGRPAD) (also: minoxidil conjugate, attachment site not given here)
expression of VEGF (mRNA) (VEGF): significantly higher than that of Minoxidil | expression of TGFβ1 (mRNA) (TGFβ1): significantly lower than that of the Minoxidil | delivery of P-Smad1/5/8 into the nucleus (phospho-Smad1/5/8): reduced as compared to the treatment with the Minoxidil
